Test: Odor detection threshold (ODT) determined using a gas chromatograph
Details: odor detection threshold of HIA perfume ingredient
Source text: HIA perfume ingredients are characterized by their respective boiling point (B.P.), octanol/water partition coefficient (P) and odor detection threshold (“ODT”). The “octanol/water partition coefficient (P)” of a perfume ingredient is the ratio between its equilibrium concentrations in octanol and in water. The boiling points of many perfume ingredients, at standard pressure (760 mm Hg) are given in, e.g., “Perfume and Flavor Chemicals (Aroma Chemicals),” Steffen Arctander, published by the author.
Odor detection thresholds are determined using a gas chromotograph as disclosed in co-pending application, Browne, et al., filed Jun. 9, 2004.

Molecule	ODT
CCC=CCCC=CC=O [2-6-nonadienal]	≦50 ppb
CC(C)=CCCC(C)CCCC(C)C=O (stereo not drawn) [Adoxal]	≧50 ppb
C=CCOC(=O)CCCCCC [Allyl Heptanoate]	≧50 ppb
CC/C=C\CCO [Beta Gamma Hexenol]	≧50 ppb
CC/C=C\CCOC(C)=O [Cis 3 Hexenyl Acetate]	≧50 ppb
C/C=C\C(=O)C1C(C)=CCCC1(C)C (stereo not drawn) [Damarose Alpha]	≦50 ppb
CCCCCCCCCC=O [Decyl Aldehyde]	≦50 ppb
CCCCCCC(C=O)=Cc1ccccc1 [Hexyl Cinnamic Aldehyde]	≧50 ppb
CC(=O)/C=C/C1=C(C)CCCC1(C)C [Ionone Beta]	≦50 ppb
CCCCCCCCC/C=C/C=O [Mandarin Aldehyde]	≦50 ppb
CC(C)=CCCC(C)C=O (stereo not drawn) [Melonal]	≦50 ppb
CCCCCCCCCC(C)C=O (stereo not drawn) [Methyl Nonyl Acetaldehyde]	≦50 ppb
CC1=CCC(C(C)CC2CCCC2=O)CC1 (stereo not drawn) [Nectaryl]	≧50 ppb
C=CCCC(=O)C1=CCCC(C)(C)C1 [Neobutenone]	≦50 ppb
CC(=O)CCc1ccc(O)cc1 [Para Hydroxy Phenyl Butanone]	≦50 ppb
CC1(C)C2CC=C(CCC=O)C1C2 (stereo not drawn) [Pino Acetaldehyde]	≦50 ppb
CCC/C=C/C=O [Trans-2 Hexenal]	≦50 ppb
CCCCCCCC1CCC(=O)O1 (stereo not drawn) [Undecalactone]	≧50 ppb
CC(=O)OC1CCCCC1C(C)(C)C (stereo not drawn) [Verdox]	≧50 ppb
C=C(C)[C@H]1CC=C(C)CC1 [d-limonene]	≧50 ppb
CCOC(=O)C(C)CC (stereo not drawn) [ethyl-2-methyl butyrate]	≦50 ppb
CCCCCCC=CC(=O)OC [methyl-2-nonenoate]	≦50 ppb
Citralva Plus	≦50 ppb
Natural Sinensal	≦50 ppb

— US8147808B2, “Consumer noticeable improvement in wetness protection using solid antiperspirant compositions” (The Procter & Gamble Company, priority 2005, dated 2012)
